The values below come from article PMC12670317, “Targeted NAT10 Degradation by PROTAC NP1192 Suppresses Hypoxia-Adaptive Glycolysis and Reinvigorates CD8^+ Effector T‑Cell Function for Synergistic Cancer Immunotherapy” (ACS Central Science, 2025).

Each structure is given as a SMILES string. pIC50: −log10 of the molar value. Where a SMILES comes first, the peptide text is derived from it. The star is where a group is joined. Cbz = O=C(OCc1ccccc1)*

The target in one assay is T1, NAT10 (Homo sapiens, UniProt Q9H0A0).
T1 construct: depletion of total NAT10 protein in SiHa (human) and U14 (murine) CCa cell lines; endogenous in cells; host or cells: SiHa (human cervical cancer cell line)
T1 sequence (Q9H0A0 1-1025): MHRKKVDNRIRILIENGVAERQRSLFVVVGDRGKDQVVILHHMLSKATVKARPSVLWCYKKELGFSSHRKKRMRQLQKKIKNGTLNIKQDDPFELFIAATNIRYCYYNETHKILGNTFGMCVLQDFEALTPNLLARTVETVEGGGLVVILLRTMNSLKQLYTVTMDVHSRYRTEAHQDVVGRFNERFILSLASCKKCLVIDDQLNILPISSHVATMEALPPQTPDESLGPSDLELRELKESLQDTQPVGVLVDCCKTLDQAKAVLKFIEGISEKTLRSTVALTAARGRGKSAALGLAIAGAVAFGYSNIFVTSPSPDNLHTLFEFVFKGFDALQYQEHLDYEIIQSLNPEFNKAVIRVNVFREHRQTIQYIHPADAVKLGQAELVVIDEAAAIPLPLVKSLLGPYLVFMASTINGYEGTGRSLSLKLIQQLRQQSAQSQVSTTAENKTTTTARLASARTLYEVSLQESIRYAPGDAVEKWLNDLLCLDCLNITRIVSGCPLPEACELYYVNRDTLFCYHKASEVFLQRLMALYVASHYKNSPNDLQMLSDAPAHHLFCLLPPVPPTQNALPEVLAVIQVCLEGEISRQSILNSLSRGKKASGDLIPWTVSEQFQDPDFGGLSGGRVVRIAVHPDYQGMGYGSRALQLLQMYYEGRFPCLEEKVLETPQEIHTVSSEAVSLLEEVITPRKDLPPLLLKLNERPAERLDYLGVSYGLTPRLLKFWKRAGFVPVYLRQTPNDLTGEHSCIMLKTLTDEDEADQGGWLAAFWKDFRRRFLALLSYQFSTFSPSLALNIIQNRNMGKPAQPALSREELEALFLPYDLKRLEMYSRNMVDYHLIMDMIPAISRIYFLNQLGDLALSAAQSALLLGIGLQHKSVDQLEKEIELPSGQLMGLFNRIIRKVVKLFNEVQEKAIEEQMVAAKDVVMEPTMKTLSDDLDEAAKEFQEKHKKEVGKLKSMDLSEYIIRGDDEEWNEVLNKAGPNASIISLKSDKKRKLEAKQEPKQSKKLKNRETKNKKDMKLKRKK
Nature of the assay: NAT10 degradation in SiHa cells, Western blot. It is filed as cell-based. The conditions noted are these: SiHa cells; for effect of cotreatment on NP1192-mediated degradation of NAT10: inhibitor 200 nM for 12 h, then NP1192 for 36 h. As for the experimental part:
The human CCa cell line SiHa and the normal epithelial foreskin fibroblast line HFF-1 were purchased from the Cell Bank of the Chinese Academy of Sciences. Additionally, murine cervical carcinoma cell line U14 (RRID:CVCL_9U56) was purchased from Boster Company. HFF-1 and U14 cells were cultured in Dulbecco’s modified Eagle’s medium (DMEM) (Gibco, USA) supplemented with 10% heat-inactivated fetal bovine serum (FBS; Gibco, USA), while SiHa cells were incubated in RPMI 1640 medium (Gibco, USA) in a humid atmosphere with 5% CO2 at 37 °C. For hypoxia exposure, the cells were incubated in a sealed culture tank containing 5% CO2 and 0.1% O2 (MGC, Japan) for 36 h.
RIPA lysis buffer (Beyotime, China) mixed with 1% protease inhibitor (Sigma, US) was added to the cells, and a sample of total protein was obtained and then loaded onto an 8% or 12% polyacrylamide gel. The gel was placed in a buffer solution, and an electric current was applied. The separated proteins were subsequently transferred from the gel onto a PVDF membrane. Next, the membrane was blocked with 5% milk for 1 h to prevent nonspecific antibody binding. The membranes were subsequently incubated with anti-NAT10 (1:1000, Abcam, USA), anti-PD-L1 (1:1000, Proteintech, China), anti-HIF-1α (1:1000, Abmart, China), and anti-β-tubulin (1:1000, Proteintech, China) primary antibodies for 12 h. Afterward, the membrane was sequentially washed with 1× TBST and incubated for 1 h with an antimouse secondary antibody (1:6000, Elabscience, China) or antirabbit secondary antibody (1:6000, Elabscience, China). The target proteins were detected via chemiluminescence with a ChemiDoc MP Imaging System (Bio-Rad, US).
In general terms: Immunoblotting shows a protein as a band on a membrane.

In assay [1] the test system is SiHa cells. Nature of the assay: SiHa cell viability IC50 (CCK-8). It is filed as cell-based, human. As to conditions: Homo sapiens; parental SiHa cells, 36 h; read-out: IC50, inhibition of SiHa cell viability. As for the experimental part: NAT10^± SiHa cells and SiHa cells treated with DMSO, Remodelin or NP1192 for 36 h were seeded into the wells of a 96-well microplate at identical densities of 2000 or 3000 cells per well. After the cells adhered to the well surface, 110 μL of a 1:10 mixture of CCK-8 reagent (Meilunbio, China) and RPMI 1640 medium was added to each well. The microplate was then incubated for another 2 h in the incubator, and the mixture was replaced with an equal volume of medium. A microplate reader (BioTek, US) was used to measure the absorption at a wavelength of 450 nm.

In assay [2] the test system is Remodelin^Resist SiHa cells. Briefly: IC50 and resistance index in Remodelin-resistant SiHa cells (CCK-8). It is filed as cell-based, human. Here is the method: We generated Remodelin-resistant (Remodelin^Resist SiHa) and NP1192-resistant (NP1192^Resist SiHa) SiHa CCa cell lines by applying a stepwise dose escalation strategy, as previously described in the literature. To quantitatively assess resistance, we calculated the resistance index for each subline following the established methodologies. Briefly, 3000 cells per well were seeded in 96-well plates and treated with increasing concentrations of Remodelin or NP1192 (0, 10, 50, 100, and 150 μM) for 24 h. Following treatment, 10 μL of CCK-8 reagent was added to each well and incubated for an additional 2 h. Absorbance at 490 nm was measured, and the IC50 values were calculated using GraphPad Prism 9.0. The RI was defined as the ratio of the IC50 in resistant cells to that in parental cells.

Assay [3] deals with SiHa cells. Nature of the assay: Colony formation assay in SiHa cells. Type of assay: cell-based, human. The conditions noted are these: pretreated 20 μM 36 h, 2 weeks. As for the experimental part: NAT10^± SiHa cells and SiHa cells treated with DMSO, Remodelin or NP1192 for 36 h were seeded into the wells of a 6-well microplate at identical densities of 2000 or 3000 cells per well. The cells were then incubated in the incubator for at least 2 weeks to form colonies. After the incubation period, the cells were fixed with formalin and then stained with crystal violet. The colonies were then counted via a microscope. The number and size of the colonies in the experimental groups were compared.

Assay [4] concerns CD8+ TILs, M2 macrophages, MDSCs and Treg cells in U14 xenograft tumors. As to conditions: Figure 7A.
Experimental: U14 cells (1 × 10^7 cells per mouse, approximately 100–150 μL of cell suspension) were implanted subcutaneously into the lateral lower dorsal surface of each mouse. The tumors were allowed to grow for 7 days, and the mice were then administered one of five treatments (group 1: U14 cells + DMSO; group 2: U14 cells + Remodelin; group 3: U14 cells + anti-PD-L1 antibody; group 4: U14 cells + NP1192; group 5: U14 cells + anti-PD-L1 antibody + NP1192). Each group of mice was assigned according to the principles of randomization and the blinding method. Tumors were measured every 2 days, and tumor volume was calculated via the following equation: volume = (width)^2 × length/2. Remodelin and NP1192 were injected into the peritumoral area every 2 days at a dose of 25 mg/kg, and the in vivo antimouse PD-L1 antibody (low endotoxin) was injected every 3 days at a dose of 2.5 mg/kg.
After the mice were euthanized, the tumor and peritumoral tissues were analyzed with an immunoflow kit (BioLegend, USA). The antibodies used for immunoflow cytometry included antihuman/mouse antibodies specific for CD11b-BV711, F4/80-AF647, CD206-PE, CD86-BV605, CD4-CD4-FITC IL-17-17-CY7/CY7, CD25-PE, FOXP3-AF647, CD4-BV605, CD45-PE/CY7, CD11b-BV711 and LY-6G/LY-6C-BV421 (BioLegend catalog no. 321239, RRID:AB_2860843). All data analyses were performed via GraphPad Prism 9, and the data are presented as the mean ± SEMs.

`CO/C1=C\C(C)=C\[C@@H](C)[C@@H](O)[C@@H](C)C/C(C)=C/C=C/[C@H](OC)[C@@H]([C@@H](C)[C@@H](O)[C@H](C)[C@@]2(O)C[C@@H](O)[C@H](C)[C@@H](C(C)C)O2)OC1=O` [bafilomycin A1, reference compound]: the “effect of cotreatment on NP1192-mediated degradation of NAT10” value on NAT10 is given as “no discernible effect”.

`N#Cc1ccc(-c2csc(N(CCCCC(=O)NCCCNc3cccc4c3C(=O)N(C3CCC(=O)NC3=O)C4=O)N=C3CCCC3)n2)cc1` (stereo not drawn) [NP1149] showed an NAT10 degradation on NAT10 (at 36 h, time course Figure 1G) of 20%. The NAT10 degradation rate at NAT10 (panel TP1–32 at the same time and concentration, Figure 1E) amounted to 23%.

Take `CC(C)C[C@@H](C=O)NC(=O)[C@H](CC(C)C)NC(=O)[C@H](CC(C)C)NC(=O)OCc1ccccc1` [MG132, reference compound] (Cbz-Leu-Leu-Leu-aldehyde): the “effect of cotreatment on NP1192-mediated degradation of NAT10” value on NAT10 is given as “significantly impeded”.

As to `N#Cc1ccc(-c2csc(NN=C3CCCC3)n2)cc1` [Remodelin, reference compound], the pIC50 with SiHa cells [1] was 4.97; in assay [2] (Homo sapiens, Remodelin^Resist SiHa cells) it was 3.30. In addition, the “resistance index (RI = IC50 resistant/parental SiHa)” value in assay [2] (497.3/10.67) is 46.60. In addition, the colony formation capacity entry in the assay with SiHa cells [3] is reported as “minimal suppressive effects”. The compound further displayed a Treg gate in assay [4] (CD4+CD25+FOXP3+) of 0.84%. The “M2 (M2 macrophages gate)” value in assay [4] (CD11b+F4/80+CD206+) is 21.24%. In assay [4] (CD11b+LY-6G+), this compound gave an MDSC gate of 58.69%. Moreover, the “CD8+ (CD8+ TILs gate)” value in assay [4] (tumors after treatment) is recorded as 0.56%.

One may read the pIC50 as the IC50 on a negative log10 scale, so that one unit is a factor of ten.
